# Experimental data: US20090076130A1, “COMPOUNDS FOR THE INHIBITION OF HISTONE DEACETYLASE” (NATUREWISE BIOTECH & MEDICALS CORPORATION, priority 2007, published 2009)
# Key:
# [1] = test system: human breast MCF-7 cancer cells; assay: Growth and morphology of breast cancer MCF-7 cells; type: cell-based
# Protocol: The breast cancer MCF-7 cells, were cultured in Dulbecco's modified Eagle's medium (DMEM; Gibco) supplemented with penicillin G, streptomycin sulphate, 0.5 mM of L-glutamine and 10% fetal bovine serum (FBS; Gibco) at 37° C., 5% CO2 and 95% relative humidity. The cells were seeded at a density of 3×10^5 per well of 6-well plates. After 24 hours, the cells were treated with different concentrations of compound NBM-HD-1 and 4 mM sodium butyrate being used as the positive control. The cells were observed after 48 hours and counted after 96 hours. […] In FIG. 8(A), after the cells were incubated with 2.5 μg/mL (FIG. 8(A)-b), 5 μg/mL (FIG. 8(A)-c) and 10 μg/mL (FIG. 8(A)-d) of NBM-HD-1 for 48 hours, the density of MCF-7 cells reduced dramatically in comparison with that of the control group (FIG. 8(A)-a). The morphology of the MCF-7 cells in the experimental group changed in comparison with that in the control group. […] The results of the cell counting (FIG. 8(B)) indicate that, similar to sodium butyrate, NBM-HD-1 inhibits cell growth.
# MCF-7 cancer cells were seeded at a density of 3×10^5 per well in 6-well plates. After 24 hours, the cells were treated with different concentrations of compound NBM-HD-2 and 4 mM sodium butyrate being used as the positive control. The cells were observed and counted after 72 hours. […] In FIG. 13(A), after the cells were incubated with 2.5 μg/mL (FIG. 13(A)-c), 5 μg/mL (FIG. 13(A)-d), 7.5 μg/mL (FIG. 13(A)-e) and 10 μg/mL (FIG. 13(A)-f) of NBM-HD-2 for 72 hours, the density of MCF-7 cells reduced dramatically in comparison with that of the control group (FIG. 13(A)-a). The morphology of the MCF-7 cells in the experimental group changed in comparison with that in the control group.
# MCF-7 cancer cells were seeded at a density of 3×10^5 per well of 6-well plates. After 24 hours, the cells were treated with different concentrations of compound NBM-HD-3 and 4 mM sodium butyrate, which was being used as the positive control. The cells were observed and counted after 72 hours. […] In FIG. 14(A), after the cells were incubated with 2.5 μg/mL (FIG. 14(A)-c), 5 μg/mL (FIG. 14(A)-d), 7.5 μg/mL (FIG. 14(A)-e) and 10 μg/mL (FIG. 14(A)-f) of NBM-HD-3 for 72 hours, the density of MCF-7 cells reduced dramatically in comparison with that of the control group (FIG. 14(A)-a). The morphology of the MCF-7 cells in the experimental group changed in comparison with that in the control group. […] The results of the cell counting (FIG. 14(B)) indicate that, similar to sodium butyrate, NBM-HD-3 inhibits cell growth.
# [2] = test system: acetylated histone H4; assay: Western blotting of hyperacetylated histone H4 in C6 glioma cells; type: cell-based, rat
# Protocol: Accumulation of hyperacetylated histone H4 was analyzed in the cell lysates by using Western Blotting and the antibody directed against acetylated histone H4 (Upstate). The C6 glioma cells were seeded at a density of 1×10^6 per 10 cm culture dish. After 24 hours, the cells were treated with 10 μg/mL of NBM-HD-1 or 4 mM sodium butyrate for several hours. The whole-cell lysates were prepared by using denaturing SDS sample buffer and then separated on 15% SDS-polyacrylamide gels. […] The amount of acetylated histones was hardly detectable in untreated C6 glioma cells. The amount of acetylated histone H4 of the cells treated with 4 mM sodium butyrate for 2 hours increased. Sodium butyrate was then removed from the culture medium. After 6 hours, the amount of acetylated histone H4 decreased. The accumulation of acetylated histone H4 increased in the cells treated with NBM-HD-1 for 2 hours. […] The highest histone acetylation appeared at 6 hours after the compound had been removed. […] Because NBM-HD-1 is more hydrophobic than sodium butyrate, NBM-HD-1 can be retained in the cells longer than sodium butyrate and continuously induce the acetylation of histone H4.
# [3] = test system: HDAC; assay: HDAC Activity Assay Kit on nuclear extracts of treated C6 glioma cells; type: cell-based, rat; settings: nuclear protein of C6 cells treated 24 hours, fluorometric substrate
# Protocol: The C6 glioma cells were treated with different doses of NBM-HD-1 and sodium butyrate (SB). After 24 hours, the cells were harvested to extract the nuclear proteins by NucBuster™ Protein Extraction Kit (Novagen) as described by the manufacturer's instructions. These extracts were then used in HDAC Activity Assay Kit (Calbiochem) to analyze their HDAC (histone deacetylase) inhibition activities. The HDAC fluorometric substrate, which comprises an acetylated lysine side chain, was incubated with extracted nuclear protein first. Deacetylation of the substrate sensitized the substrate, so that, in the second step, treatment with the Lysine Developer produced a fluorophore. The fluorophore can easily be analyzed by using a fluorescence plate reader. […] Inhibition of HDAC has been implicated in the induction of differentiation in cancer cells. In this experiment, a well-known compound for HDAC inhibition, sodium butyrate, was used as a positive control.
# [4] = test system: cortical neurons; assay: Neurite outgrowth of cortical neurons from fetal rat neural stem cells; type: cell-based, Wistar rat; settings: 0.63 μg/mL, 6 days, vs DMSO control
# Protocol: The growth medium for the NSCs (neural stem cells) and cortical neurons was prepared by adding penicillin G, streptomycin and 0.5 mM of L-glutamine into a B-27 supplemented neurobasal medium (Gibco). The unborn fetus was taken out of the fetal sac in the abdominal cavity of a 17-day pregnant Wistar rat under anesthesia. The cerebral tissue was removed from the fetus and treated with 0.1% trypsin solution at 25° C. for three minutes. After washing with PBS solution 3 times, the cells were dissociated by up and down mixing. The resulting solution was passed through a 70 μm Nylon cell strainer (Falcon) in order to obtain the filtrate that contained cerebral cells. The filtrate was centrifuged at 1000 rpm for 10 minutes and the supernatant was aspirated. The resulting pellet was resuspended in the growth medium prepared as stated above. The resulting suspension contained NSCs.
# The cells obtained from the suspension were cultivated in 6-well plates coated with 30 μg/ml of poly-D-lysine (Sigma) at the density of 75 cells/mm^2. The cells were cultured at 37° C., 5% CO2 and 95% relative humidity. The growth media contained 0.63 μg/mL of NBM-HD-1 and the growth media with 1 μl of DMSO was used as the control. […]
# After cultivation for 6 days, live cells were observed by microscope. The lengths of the neurites of the neurons in 6 different fields were measured and averaged. […]
compound,measurement,setting,value
COc1cc2c(c(OC)c1CCC(C)(C)O)C(=O)C[C@@H](c1ccc(OC)c(OC)c1C/C=C(\C)CCCC(C)(C)O)O2 [NBM-HD-1],morphology of MCF-7 cancer cells,"[1]; 2.5, 5, 10 μg/mL, 48 hours",change their morphology
same,growth of MCF-7 cancer cells,"[1]; NBM-HD-1 2.5, 5, 10 μg/mL or 4 mM sodium butyrate, observed after 48 hours, counted after 96 hours",can inhibit the growth of MCF-7 cancer cells in a dose-dependent manner
same,accumulation of hyperacetylated histone H4,"[2]; 10 μg/mL NBM-HD-1 or 4 mM sodium butyrate, 2 hours",can increase the accumulation of hyperacetylated histone H4
same,time of highest histone acetylation after removal of the compound,"[2]; 10 μg/mL, 2 hours treatment",6 h
same,amount of acetylated histone H4 after removal of the compound,"[2]; after 2 hours treatment and removal from the culture medium, up to 6 hours",increased over time
same,HDAC activity,[3],significantly inhibits HDAC activity
same,neurite outgrowth (length of the neurites),[4],could promote the neurite outgrowth
